Entries after “also recorded” stand apart in the source; their conditions may differ.
What was measured:
SARS-CoV-2 PL^pro = SARS-CoV-2 PL^pro (Severe acute respiratory syndrome coronavirus 2, UniProt P0DTD1); assay: biochemical
DENV protease = conditions: enzyme concentration 1 μM; cited from earlier work
WNF protease = conditions: cited from earlier work

| Compound | Effect of reducing agent on PLpro inhibition (in words) (SARS-CoV-2 PL^pro) | IC50 (SARS-CoV-2 PL^pro) [nM] | IC50 (DENV protease) [nM] | IC50 (WNF protease) [nM] |
| --- | --- | --- | --- | --- |
| Sc1ncc2[nH]cnc2n1 [2-MP, 2-mercaptopurine] | diminished; also recorded: significantly increases the IC50 values | 820 ± 600 | – | – |
| Sc1ncnc2nc[nH]c12 [6-MP, 6-mercaptopurine] | – | ~66000 | – | – |
| CCN(CC)C(=S)SSC(=S)N(CC)CC [Antabuse] | significantly increases the IC50 values | – | – | – |
| Aprotinin | – | – | 65 | 20 |
